Consider five molecules from patent US20060057614A1 (priority 2004, published 2006).

Assay [1] deals with muscle α1β1γδ nicotinic acetylcholine receptor (expressed in Xenopus oocytes). Put plainly: cell-based or functional assay.
For a further assay, the target named is α1β1γδ nAChR (Homo sapiens, UniProt P02708+P07510+Q07001). The conditions noted are these: cited from earlier work.
In another assay the target is α7nAChR (Homo sapiens, UniProt P36544). The conditions noted are these: cited from earlier work.
For a further assay, the target named is α4β2 nAChR (Homo sapiens, UniProt P17787+P43681). Particulars: cited from earlier work.
The target in another assay is α3β2 nAChR (Homo sapiens, UniProt P17787+P32297). The conditions noted are these: cited from earlier work.
The target in assay [2] is T1, zebrafish acetylcholinesterase (synaptic, in muscle) (zebrafish, UniProt Q9DDE3 24-634).
T1 construct: whole, on cells; also called synaptic acetylcholinesterase

α4β2 nAChR, sequence (P43681 29-627): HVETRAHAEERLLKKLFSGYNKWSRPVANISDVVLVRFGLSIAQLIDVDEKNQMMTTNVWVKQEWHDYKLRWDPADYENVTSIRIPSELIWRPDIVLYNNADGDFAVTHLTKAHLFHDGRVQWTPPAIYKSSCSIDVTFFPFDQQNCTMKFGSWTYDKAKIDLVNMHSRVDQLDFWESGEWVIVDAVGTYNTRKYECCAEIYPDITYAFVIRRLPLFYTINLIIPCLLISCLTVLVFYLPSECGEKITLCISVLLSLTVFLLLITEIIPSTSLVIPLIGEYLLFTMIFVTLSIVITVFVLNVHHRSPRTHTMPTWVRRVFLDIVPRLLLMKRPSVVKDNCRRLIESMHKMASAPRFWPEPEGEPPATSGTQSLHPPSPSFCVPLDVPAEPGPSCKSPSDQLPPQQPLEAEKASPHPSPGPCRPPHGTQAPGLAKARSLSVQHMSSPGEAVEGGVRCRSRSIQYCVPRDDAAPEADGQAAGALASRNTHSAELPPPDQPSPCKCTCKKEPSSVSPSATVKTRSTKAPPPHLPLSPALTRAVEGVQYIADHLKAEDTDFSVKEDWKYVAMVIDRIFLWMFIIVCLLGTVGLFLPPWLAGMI
α4β2 nAChR, sequence (P17787 26-502): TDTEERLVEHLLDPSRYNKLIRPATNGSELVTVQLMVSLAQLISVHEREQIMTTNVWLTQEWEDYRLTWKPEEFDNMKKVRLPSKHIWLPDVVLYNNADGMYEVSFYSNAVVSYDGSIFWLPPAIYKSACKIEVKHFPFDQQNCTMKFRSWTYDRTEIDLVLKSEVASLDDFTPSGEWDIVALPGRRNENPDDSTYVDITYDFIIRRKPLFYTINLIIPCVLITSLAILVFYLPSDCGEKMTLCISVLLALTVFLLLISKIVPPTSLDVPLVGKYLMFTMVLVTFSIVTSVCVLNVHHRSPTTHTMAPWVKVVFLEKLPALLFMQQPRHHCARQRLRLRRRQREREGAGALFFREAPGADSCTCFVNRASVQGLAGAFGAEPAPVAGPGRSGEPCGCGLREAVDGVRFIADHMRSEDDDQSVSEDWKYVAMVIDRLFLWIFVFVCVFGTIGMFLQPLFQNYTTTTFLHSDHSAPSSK
α1β1γδ nAChR, sequence (P11230 24-501): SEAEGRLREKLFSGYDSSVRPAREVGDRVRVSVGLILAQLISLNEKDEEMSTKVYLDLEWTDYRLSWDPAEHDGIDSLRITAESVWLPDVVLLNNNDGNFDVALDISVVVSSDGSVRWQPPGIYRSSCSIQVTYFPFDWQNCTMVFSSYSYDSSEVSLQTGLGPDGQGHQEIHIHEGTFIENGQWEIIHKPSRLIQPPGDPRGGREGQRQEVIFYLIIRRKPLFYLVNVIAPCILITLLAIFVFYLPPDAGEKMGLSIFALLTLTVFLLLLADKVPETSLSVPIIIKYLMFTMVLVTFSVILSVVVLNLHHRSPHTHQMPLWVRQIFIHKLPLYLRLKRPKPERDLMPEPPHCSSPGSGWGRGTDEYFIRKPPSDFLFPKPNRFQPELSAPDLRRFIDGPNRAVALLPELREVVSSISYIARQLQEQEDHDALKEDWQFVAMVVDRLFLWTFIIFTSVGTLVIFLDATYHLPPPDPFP
α1β1γδ nAChR, sequence (P02708 21-457): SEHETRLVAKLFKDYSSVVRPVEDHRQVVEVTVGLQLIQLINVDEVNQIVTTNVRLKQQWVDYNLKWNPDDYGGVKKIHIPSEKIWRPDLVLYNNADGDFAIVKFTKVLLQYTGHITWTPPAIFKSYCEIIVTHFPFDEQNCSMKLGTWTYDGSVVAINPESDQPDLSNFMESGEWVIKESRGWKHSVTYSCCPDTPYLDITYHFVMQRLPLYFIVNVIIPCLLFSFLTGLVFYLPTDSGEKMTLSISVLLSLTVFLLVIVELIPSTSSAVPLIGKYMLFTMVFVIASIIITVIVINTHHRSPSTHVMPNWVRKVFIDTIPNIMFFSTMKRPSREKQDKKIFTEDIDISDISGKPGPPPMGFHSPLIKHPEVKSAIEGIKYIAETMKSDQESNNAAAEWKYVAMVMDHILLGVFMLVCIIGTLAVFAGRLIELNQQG
α1β1γδ nAChR, sequence (Q07001 22-517): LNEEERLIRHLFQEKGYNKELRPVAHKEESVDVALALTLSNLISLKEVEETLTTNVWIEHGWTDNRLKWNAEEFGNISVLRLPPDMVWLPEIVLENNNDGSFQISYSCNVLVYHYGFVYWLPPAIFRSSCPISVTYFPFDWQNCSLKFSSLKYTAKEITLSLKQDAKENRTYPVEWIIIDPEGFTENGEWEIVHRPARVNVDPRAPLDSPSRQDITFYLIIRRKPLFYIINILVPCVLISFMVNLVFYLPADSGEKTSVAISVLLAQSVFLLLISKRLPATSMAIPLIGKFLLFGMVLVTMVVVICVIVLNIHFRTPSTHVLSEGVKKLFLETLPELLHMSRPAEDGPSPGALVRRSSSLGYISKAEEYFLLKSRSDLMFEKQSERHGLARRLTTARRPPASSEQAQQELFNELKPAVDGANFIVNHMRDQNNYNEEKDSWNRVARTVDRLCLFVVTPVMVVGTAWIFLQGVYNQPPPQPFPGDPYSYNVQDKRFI
α1β1γδ nAChR, sequence (P07510 23-517): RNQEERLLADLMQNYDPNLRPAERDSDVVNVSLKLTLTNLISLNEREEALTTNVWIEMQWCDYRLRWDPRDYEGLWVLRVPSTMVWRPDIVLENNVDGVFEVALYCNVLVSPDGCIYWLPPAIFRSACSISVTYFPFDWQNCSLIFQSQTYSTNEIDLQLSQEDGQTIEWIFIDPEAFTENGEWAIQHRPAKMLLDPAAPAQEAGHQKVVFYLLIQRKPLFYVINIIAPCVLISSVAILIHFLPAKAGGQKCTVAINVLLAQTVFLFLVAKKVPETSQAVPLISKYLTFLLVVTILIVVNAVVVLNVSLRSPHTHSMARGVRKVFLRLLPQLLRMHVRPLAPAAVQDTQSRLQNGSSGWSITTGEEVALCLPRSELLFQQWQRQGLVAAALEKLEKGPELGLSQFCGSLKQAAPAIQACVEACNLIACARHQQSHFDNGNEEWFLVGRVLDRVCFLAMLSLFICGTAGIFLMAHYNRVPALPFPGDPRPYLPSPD
α7nAChR, sequence (P36544 23-502 limits assumed): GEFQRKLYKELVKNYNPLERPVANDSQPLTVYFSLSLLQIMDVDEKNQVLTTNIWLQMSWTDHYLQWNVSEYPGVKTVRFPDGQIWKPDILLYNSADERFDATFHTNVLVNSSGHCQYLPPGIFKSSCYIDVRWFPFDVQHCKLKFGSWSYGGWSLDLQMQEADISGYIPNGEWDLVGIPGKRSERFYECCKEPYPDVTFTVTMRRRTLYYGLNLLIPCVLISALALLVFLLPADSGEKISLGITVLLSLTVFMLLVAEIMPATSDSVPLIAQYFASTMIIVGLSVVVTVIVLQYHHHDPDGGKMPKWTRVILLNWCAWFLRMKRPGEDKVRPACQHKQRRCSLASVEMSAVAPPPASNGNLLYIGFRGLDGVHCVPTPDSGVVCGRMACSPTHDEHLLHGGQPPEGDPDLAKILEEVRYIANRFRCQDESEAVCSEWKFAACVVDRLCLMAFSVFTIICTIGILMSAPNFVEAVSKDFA
α3β2 nAChR, sequence (P32297 32-505 limits assumed): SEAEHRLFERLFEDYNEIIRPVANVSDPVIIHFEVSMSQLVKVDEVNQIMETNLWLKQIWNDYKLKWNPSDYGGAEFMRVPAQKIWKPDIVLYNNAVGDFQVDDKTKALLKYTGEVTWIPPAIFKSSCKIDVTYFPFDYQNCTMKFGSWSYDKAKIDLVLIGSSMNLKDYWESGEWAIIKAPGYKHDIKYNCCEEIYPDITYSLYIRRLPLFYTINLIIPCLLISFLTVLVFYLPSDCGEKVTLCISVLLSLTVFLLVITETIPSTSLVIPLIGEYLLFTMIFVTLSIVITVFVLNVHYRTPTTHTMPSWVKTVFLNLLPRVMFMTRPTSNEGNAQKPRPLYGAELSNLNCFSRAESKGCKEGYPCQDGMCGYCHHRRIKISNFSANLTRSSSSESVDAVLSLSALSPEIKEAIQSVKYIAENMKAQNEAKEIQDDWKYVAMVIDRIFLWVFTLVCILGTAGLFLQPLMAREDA
α3β2 nAChR, sequence (P17787 26-502 limits assumed): as the sequence (P17787 26-502) above

tethered α-bungarotoxin: the average peak ACh current, Xenopus oocytes (receptor alone: 8.46 +/-3.7 µA) in assay [1] was 0 µA. For the molecule κ-bungartotoxin, the results for the Affinity at α1β1γδ nAChR, on α7nAChR and on α4β2 nAChR were 1 µM, 1 to 12 nM and more than 0.1 µM, respectively. α-bungarotoxin: the Affinity is 0.0004 µM on α1β1γδ nAChR, 0.95 nM on α7nAChR and 100 µM on α4β2 nAChR. For α-conotoxin MII, at α3β2 nAChR, the Affinity is 0.5 nM.

B1: Alexa 647 conjugated Fasciculin 2 (ligand)
chain: TMCYSHTTTSRAILTNCGENSCYRKSRRHPPKMVLGRGCGCPPGDDNLEVKCCTSPDKCNY
notes: Bought reagent; also called FasII
As to B1, in assay [2], the binding result is on record as “binds”.
